In patent US20060234909A1, “Compositions and methods for increasing drug efficiency” (priority 2003, published 2006):
pEC50: −log10 of the molar value. Primed or numbered codes have the meaning given here. * marks the point of attachment. 3Am‑VBL = vinblastine (VBL) conjugate; PEG(11) = PEG(11) linker; PEG(29) = PEG(29) linker; 3Am = not defined here; Cbz = O=C(OCc1ccccc1)*; Piv = CC(C)(C)C(=O)*; VBL = vinblastine

What was measured:
[1] = tested on: HT-29 colorectal carcinoma; test: Cytotoxicity assay (monolayer), HT-29; format: cell-based; details: HT29, ML (monolayer); read-out: HT29 (EC50 Ave) ML;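 also: monolayer cultures tested in triplicate, compound exposure for three days against DMSO vehicle controls, EC50 fitted from dose-response curves and averaged across all tests and lots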
MCF-7 breast carcinoma = test: Cytotoxicity assay (monolayer), MCF-7; format: cell-based; details: MCF7, ML (monolayer); read-out: MCF7 (EC50 Ave) ML;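 also: cells treated 72 h with 6-8 compound doses versus DMSO vehicle controls, EC50 fitted by 4-parameter dose-response curves, averaged across all tests and lots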
HT-29 cells = details: read-out: HT29 (EC50 Ave) SA; HT29, SA (soft agar)
[2] = tested on: Normal human foreskin fibroblasts (HFF); details: read-out: HFF (EC50 Ave) ML; HFF, ML (monolayer)
MCF-7 cells = details: read-out: MCF7 (EC50 Ave) SA; MCF7, SA (soft agar)
HUVEC = test: Cytotoxicity assay (monolayer), HUVEC; format: cell-based; details: ML (monolayer), read-out: HUVEC (EC50 Ave) ML
tubulin = test: Fluorescence-based tubulin polymerization assay (MPA; enhancement for paclitaxel, inhibition for vinblastine); format: biochemical
Text: Drug-linker constructs may further be screened using functional assays predictive of biological activity. […] Tubulin assembly or inhibition thereof may be monitored by fluorescence using the CytoDYNAMIX Screen™ 10 kit available from Cytoskeleton (1830 S. Acoma St., Denver, Colo.). […] Emission is monitored at 405 nm with excitation at 360 nm. […] Tubulin assembly or inhibition may also be monitored by light scattering which is approximated by the apparent absorption at 350 nm. For paclitaxel drug conjugates BSA is employed to prevent aggregation and glycerol, which is a tubulin polymerization enhancer, is omitted from the kit to increase the signal to noise ratio.
The assay kit (#BK011) was purchased from Cytoskeleton (Denver, Colo.). The assays were carried out according to the manufacturer's instructions, except that 1 mg/ml BSA (Sigma #A3059) was included in all assays. […] Parent drugs and conjugates were tested at 0.75, 1.5, 3 and 10 micromolar final concentration and results represent a comparison of conjugate and parent drug curves obtained from the linear range of the dose responses.
(±SD) represent the average of all tests carried out for all lots of a given compound.

Human Src = biological target: T1, Human Src (Homo sapiens, UniProt P12931); test: Src kinase assay (PKLight ATP utilization, substrate phosphorylation as % of parent peptide); format: biochemical
T1 construct: purchased Upstate (Charlottesville, Va.) 14-326
Experimental: Another test may involve monitoring the consumption of ATP. For example, ATP concentrations at time 0 or after 4 hour incubation may be monitored by luciferase reaction (PKLight kit obtained from Cambrex Corporation, One Meadowlands Plaza, East Rutherford, N.J. 07073), which generate a luminescence readout in the presence of ATP. Assays are initiated by mixing a kinase and a peptide in the presence of 40 μM ATP. After 4 hour of incubation at 30° C., PKLight reagent is added and mixed well, and luminescence readout measured. The rate of peptide phosphorylation is then directly related to the rate of decrease in the observed luminescence. Based on the first test, linkers of appropriate lengths and peptides with an effective amount of kinase activity which may be expected to be retained in the drug conjugate may be found.
Human Src (#14-326) and Akt (#14-276) kinases were purchased from Upstate (Charlottesville, Va.). Kinase reactions were carried out in 50 μl kinase reaction cocktail (25 mM Tris-HCl, pH 7.5, 5 μM β-glycerophosphate, 2 mM DTT, 0.1 mM Na3VO4, 10 mM MgCl2, 1 mg/ml BSA, […], 0.5 to 1.0 units enzyme). Substrates (peptide or drug-peptide conjugate in […]) were added (25, 50 and 100 μM) and the reaction was incubated for 2-5 hours at 30° C. PKLight reagent (23 μl) (Cambrex BioSciences, Rockland, Me.) was mixed with […] of the above kinase reaction and ATP utilization relative to no substrate and no ATP controls was determined by measuring luminescence with a SpectraMax Gemini EM plate reader (Molecular Devices, Sunnyvale, Calif.). Peptide substrates for Src and Akt have been described. For examples, see Lou et al. Letters in Peptide Science, 2, 289-296 (1995); Lou et al. Bioorganic & Medicinal Chemistry, 4, 677-682 (1996); Alessi et al. FEBS Letters, 399, 333-338 (1996). Substrate phosphorylation potential was determined from the linear portion of the substrate concentration dose response as a percentage of the activity observed with the parent peptide used for drug conjugation.

| Compound | pEC50 [1] | pEC50 (MCF-7 breast carcinoma) | pEC50 (HT-29 cells) | pEC50 [2] | pEC50 (MCF-7 cells) | pEC50 (HUVEC) | Ave. MPA Act. (tubulin) | Average src kinase activity (Human Src) |
| --- | --- | --- | --- | --- | --- | --- | --- | --- |
| CC(=O)O[C@@]12CO[C@@H]1C[C@H](O)[C@@]1(C)C(=O)[C@H](O)C3=C(C)[C@@H](OC(=O)[C@H](O)[C@@H](NC(=O)c4ccccc4)c4ccccc4)C[C@@](O)([C@@H](OC(=O)c4ccccc4)[C@H]21)C3(C)C [10 Deacetyl Taxol] | > 7.70 | 7.00 to 7.70 | > 7.70 | > 7.70 | > 7.70 | > 7.70 | – | – |
| CC[C@]1(O)C[C@@H]2CN(CCc3c([nH]c4ccccc34)[C@@](C(=O)OC)(c3cc4c(cc3OC)N(C)[C@H]3[C@@](O)(C(=O)OC)[C@H](O)[C@]5(CC)C=CCN6CC[C@]43[C@@H]65)C2)C1 [Desacetyl vinblastine] | > 7.70 | > 7.70 | > 7.70 | > 7.70 | > 7.70 | > 7.70 | C (C>80) | – |
| CC[C@]1(O)C[C@@H]2CN(CCc3c([nH]c4ccccc34)[C@@](C(=O)OC)(c3cc4c(cc3OC)N(C)[C@H]3[C@@](O)(C(=O)NN)[C@H](O)[C@]5(CC)C=CCN6CC[C@]43[C@@H]65)C2)C1 [Desacetylvinblastine monohydrazine] | > 7.70 | > 7.70 | > 7.70 | > 7.70 | > 7.70 | > 7.70 | C (C>80) | – |
| C=CCOC(=O)O[C@@H](C(=O)O[C@H]1C[C@@]2(O)[C@@H](OC(=O)c3ccccc3)[C@@H]3[C@]4(OC(C)=O)CO[C@@H]4C[C@H](O)[C@@]3(C)C(=O)[C@H](OC(C)=O)C(=C1C)C2(C)C)[C@@H](NC(=O)c1ccccc1)c1ccccc1 [PXL-2′Alloc] | > 7.70 | > 7.70 | > 7.70 | > 7.70 | > 7.70 | > 7.70 | A (A<50) | – |
| CC(=O)O[C@H]1C(=O)[C@]2(C)[C@@H](OC(=O)NCCCCCCN)C[C@H]3OC[C@@]3(OC(C)=O)[C@H]2[C@H](OC(=O)c2ccccc2)[C@]2(O)C[C@H](OC(=O)[C@H](O)[C@@H](NC(=O)c3ccccc3)c3ccccc3)C(C)=C1C2(C)C [PXL-7Ca-ALK(6)-NH2] | > 7.70 | 6.00 to 7.00 | > 7.70 | > 7.70 | > 7.70 | > 7.70 | A (A<50) | – |
| CC(=O)O[C@H]1C(=O)[C@]2(C)[C@@H](OC(=O)CCCCCN)C[C@H]3OC[C@@]3(OC(C)=O)[C@H]2[C@H](OC(=O)c2ccccc2)[C@]2(O)C[C@H](OC(=O)[C@H](O)[C@@H](NC(=O)c3ccccc3)c3ccccc3)C(C)=C1C2(C)C [PXL-7Es-ALK(5)-NH2] | 6.00 to 7.00 | 6.00 to 7.00 | > 7.70 | > 7.70 | > 7.70 | > 7.70 | A (A<50) | – |
| CC(=O)O[C@@]12CO[C@@H]1C[C@H](O)[C@@]1(C)C(=O)[C@H](OC(=O)CCCCCN)C3=C(C)[C@@H](OC(=O)[C@H](O)[C@@H](NC(=O)c4ccccc4)c4ccccc4)C[C@@](O)([C@@H](OC(=O)c4ccccc4)[C@H]21)C3(C)C [PXL-10Es-ALK(5)-NH2] | > 7.70 | > 7.70 | > 7.70 | > 7.70 | > 7.70 | > 7.70 | B (B=50-80) | – |
| CC(=O)O[C@@]12CO[C@@H]1C[C@H](O)[C@@]1(C)C(=O)[C@H](OC(=O)CCCCCCNC(=O)OCc3ccccc3)C3=C(C)[C@@H](OC(=O)[C@H](O)[C@@H](NC(=O)c4ccccc4)c4ccccc4)C[C@@](O)([C@@H](OC(=O)c4ccccc4)[C@H]21)C3(C)C [PXL-10Es-Alk(6)-NH(Z)] | > 7.70 | > 7.70 | > 7.70 | > 7.70 | > 7.70 | > 7.70 | A (A<50) | – |
| CC[C@]1(O)C[C@@H]2CN(CCc3c([nH]c4ccccc34)[C@@](C(=O)OC)(c3cc4c(cc3OC)N(C)[C@H]3[C@@](O)(C(=O)NCCCCCCN)[C@H](O)[C@]5(CC)C=CCN6CC[C@]43[C@@H]65)C2)C1 [VBL-3Am-ALK(6)-NH2] | > 7.70 | > 7.70 | > 7.70 | > 7.70 | > 7.70 | > 7.70 | C (C>80) | – |
| CBz-E(Bzl)YIFGSFK(BOC)-PEG(11)-3Am-VBL | < 7.00 | > 7.70 | – | < 7.00 | – | < 7.00 | A (A<50) | A (A<20) |
| CBz-RPRTSSF-PEG(11)-3Am-VBL (N-CBz; PEG(11) linker; vinblastine conjugate) | > 7.70 | > 7.70 | – | – | 7.00 to 7.70 | – | – | – |
| CBz-YIFGSFK-PEG(11)-3Am-VBL (N-CBz; PEG(11) linker; vinblastine conjugate) | < 7.00 | < 7.00 | – | < 7.00 | – | < 7.00 | B (B=50-80) | A (A<20) |
| CBz-YIYGSFK(CBz)-PEG(11)-3Am-VBL (Cbz-YIYGSFK(Cbz)-{PEG(11)-3Am-VBL}; reading uncertain; also: printed as CBz-YIYGSFK(CBz)-PEG(11)-3Am-VBL) | < 7.00 | 7.00 to 7.70 | – | 7.00 to 7.70 | – | 7.00 to 7.70 | B (B=50-80) | A (A<20) |
| CH3O(CH2CH2O)3CH2CH2(C═)YIYGSFH-PEG(11)-3Am-VBL (N-methoxy-PEG acyl; PEG(11); vinblastine conjugate) | < 7.00 | < 7.00 | – | < 7.00 | – | < 7.00 | B (B=50-80) | C (C>40) |
| CH3O(CH2CH2O)3CH2CH2(C═O)YIYGSFS-PEG(11)-3Am-VBL (N-methoxy-PEG acyl; PEG(11); vinblastine conjugate) | < 7.00 | < 7.00 | – | < 7.00 | – | < 7.00 | C (C>80) | C (C>40) |
| H-GIYWHHY-PEG(11)-3Am-VBL (H-GIYWHHY-{PEG(11)-3Am-VBL}; reading uncertain) | < 7.00 | < 7.00 | – | < 7.00 | – | < 7.00 | B (B=50-80) | B (B=20-40) |
| H-YIYGSFK-PEG(11)-3Am-VBL (H-YIYGSFK-{PEG(11)-3Am-VBL}; reading uncertain) | < 7.00 | < 7.00 | – | 7.00 to 7.70 | – | < 7.00 | B (B=50-80) | C (C>40) |
| H-YIYGSFK-PEG(29)-3Am-VBL x 2TFA (H-YIYGSFK-{PEG(29)-3Am-VBL}; reading uncertain; also: 2TFA salt) | 7.00 to 7.70 | > 7.70 | – | 7.00 to 7.70 | – | < 7.00 | A (A<50) | A (A<20) |
| Pv-EYIYGSFR-PEG(11)-3Am-VBL (Piv-EYIYGSFR-{PEG(11)-3Am‑VBL}) | < 7.00 | < 7.00 | – | < 7.00 | – | < 7.00 | C (C>80) | C (C>40) |
